Here are results for 3 substances from patent US7985837B2, “Two component Bacillus lantibiotic and methods for producing and using the same” (The Board of Trustees of the University of Illinois, priority 2006, dated 2011).

Assay [1] deals with Lactococcus lactis CNRZ 117. Put plainly: Bioactivity assay, solid agar medium test (zones of inhibition). The settings on record: for zone of inhibition, both modified peptides together: prepared in vitro: HalA1-Xa/HalA2-Xa modified by HalM1/HalM2, leader removed by Factor Xa, both peptides applied. The class given is cell-based. On the procedure: Bioactivity Assay. The inhibitory activity of haloduracin isolated from the producing strain and prepared in vitro was assayed using the solid agar medium test. Liquid molten GM17 agar (4% M17, 0.5% glucose, 1.5% agar) was cooled to 50° C. and seeded with an overnight culture of the indicator strain Lactococcus lactis CNRZ 117. After agar solidification in a Petri dish, samples were applied to a small well created in the medium. Assay samples were typically concentrated to dryness using a speed vac and rehydrated in a small volume (5-15 μL) of sterile water for application purposes. The cell-free solution isolated from B. halodurans C-125 was applied directly to the plate without further concentration. Plates were incubated overnight at room temperature and zones of inhibition were observed the next day.

The conditions of assay [2]: Ltn1 and Ltn2 acting in synergy in a 1:1 ratio; cited from earlier work.

For “haloduracin: two-component lantibiotic of Bacillus halodurans C-125 composed of the modified peptides Hal1 (SEQ ID NO:5) and Hal2 (SEQ ID NO:6)”, the “zone of growth inhibition” value in assay [1] (cell-free supernatant isolated from producer strain B. halodurans C-125, applied to indicator strain) is recorded as “a zone of growth inhibition was produced”. The “zone of inhibition, both modified peptides together” value in assay [1] is “comparable to the bactericidal effects exhibited by the peptides isolated from the producer strain”; in assay [1] (listed as haloduracin peptides prepared in vitro), “zone of inhibition comparable to that produced by Hal1 and Hal2 isolated from B. halodurans”.
For “Hal1: mature haloduracin alpha peptide from HalA1, SEQ ID NO:5; three dehydrations and one disulfide”, the “zones of growth inhibition / antimicrobial activity after iodoacetamide modification” value in assay [1] (peptides isolated from B. halodurans, reduced and alkylated with iodoacetamide (Hal1 two adducts, Hal2 zero adducts), excess IAA removed) is listed as “did not abolish antimicrobial activity”.
On to lacticin 3147, for which the antibacterial activity result in assay [2] was “nanomolar antibacterial activity”.
